Assay results reported in the CheMixHub viscosity set.
Values joined by “and” are separate entries in the source; they are usually repeats but may differ in a detail not shown here. Identical values can stand only once.

CCI
Settings | viscosity [mPa·s]
298.15 K, 101 kPa | 0.577

CCn1cc[n+](CCOC)c1.O=S(=O)([N-]S(=O)(=O)C(F)(F)F)C(F)(F)F
100 kPa
Settings | viscosity [mPa·s]
293.15 K | 43.63
298.15 K | 35.49
303.15 K | 29.33
308.15 K | 24.58
313.15 K | 20.86
318.15 K | 18.03

CC12CC3CC(C)(C1)CC(C)(C3)C2
100 kPa
Settings | viscosity
293.15 K | 2.641 mPa·s and 2.61 mPa·s
298.15 K | 2.376 mPa·s and 2.35 mPa·s
303.15 K | 2.147 mPa·s
308.15 K | 1.951 mPa·s
313.15 K | 1.781 mPa·s and 1.76 mPa·s
318.15 K | 1.633 mPa·s
323.15 K | 1.502 mPa·s

CCCCCCCC
Settings | viscosity
293.15 K, 100 kPa | 0.547 mPa·s and 0.512 mPa·s
293.15 K, 101 kPa | 0.556 mPa·s and 0.539 mPa·s
298.15 K, 100 kPa | 0.517 mPa·s and 0.48 mPa·s
298.15 K, 101.32 kPa | 0.507 mPa·s
303.15 K, 100 kPa | 0.452 mPa·s
303.15 K, 101 kPa | 0.482 mPa·s
303.15 K, 101.33 kPa | 0.4865 mPa·s and 0.479 mPa·s (2×) and 0.479 mPa·s
308.15 K, 100 kPa | 0.468 mPa·s and 0.425 mPa·s
308.16 K, 101.3 kPa | 0.4568 mPa·s
313.15 K, 100 kPa | 0.447 mPa·s and 0.4 mPa·s and 0.429 mPa·s
318.15 K, 101.33 kPa | 0.403 mPa·s
318.16 K, 101 kPa | 0.4138 mPa·s
323.15 K, 100 kPa | 0.385 mPa·s
323.15 K, 101 kPa | 0.4049 mPa·s

CC(=O)OC1CCCCC1
101 kPa
Settings | viscosity [mPa·s]
300 K | 1.95
310 K | 1.61
320 K | 1.36

c1ccccc1
Settings | viscosity
293.15 K, 100 kPa | 0.641 mPa·s and 0.656 mPa·s
293.15 K, 101 kPa | 0.644 mPa·s and 0.629 mPa·s and 0.646 mPa·s
293.15 K, 101.33 kPa | 0.645 mPa·s and 0.645 mPa·s
293.16 K, 101 kPa | 0.652 mPa·s
294.35 K, 101.33 kPa | 0.6559 mPa·s
298 K, 101 kPa | 0.6139 mPa·s
298 K, 101.33 kPa | 0.596 mPa·s
298.15 K, 100 kPa | 0.6121 mPa·s
298.15 K, 101.3 kPa | 0.609 mPa·s
303.15 K, 101.32 kPa | 0.576 mPa·s
303.95 K, 101.33 kPa | 0.5989 mPa·s
304.85 K, 101.33 kPa | 0.5927 mPa·s
307.35 K, 101.33 kPa | 0.53 mPa·s
307.4 K, 101.33 kPa | 0.309 mPa·s
312.95 K, 101.33 kPa | 0.5173 mPa·s
313 K, 101 kPa | 0.4925 mPa·s and 0.4923 mPa·s and 0.4923 mPa·s
313 K, 101.33 kPa | 0.489 mPa·s
313.15 K, 100 kPa | 0.491 mPa·s
313.25 K, 101.33 kPa | 0.5324 mPa·s
318 K, 101 kPa | 0.4788 mPa·s
318 K, 101.3 kPa | 0.4765 mPa·s
318.15 K, 101.33 kPa | 0.553 mPa·s and 0.553 mPa·s
322.75 K, 101.33 kPa | 0.4749 mPa·s
322.85 K, 101.33 kPa | 0.4803 mPa·s
323.15 K, 100 kPa | 0.435 mPa·s
323.15 K, 101 kPa | 0.438 mPa·s and 0.4367 mPa·s and 0.434 mPa·s

Cc1ccnc(C)c1
101 kPa
Settings | viscosity
303 K | 0.7893 mPa·s and 0.7892 mPa·s
313 K | 0.6863 mPa·s and 0.686 mPa·s
323 K | 0.6133 mPa·s and 0.6129 mPa·s

ClC(Cl)=C(Cl)Cl
Settings | viscosity
293.15 K, 101.33 kPa | 0.8 mPa·s
298 K, 101 kPa | 1.02 mPa·s
298.15 K, 101 kPa | 0.838 mPa·s and 0.8486 mPa·s and 0.8426 mPa·s
298.15 K, 101.33 kPa | 0.846 mPa·s
303 K, 101 kPa | 0.97 mPa·s
303.15 K, 101 kPa | 0.7976 mPa·s and 0.798 mPa·s and 0.814 mPa·s
303.15 K, 101.3 kPa | 0.799 mPa·s
303.15 K, 101.32 kPa | 0.7976 mPa·s
308 K, 101 kPa | 0.92 mPa·s
313 K, 101 kPa | 0.88 mPa·s
313.15 K, 101.33 kPa | 0.731 mPa·s and 0.68 mPa·s

CCCCCCCCCCCCCCCCCCC
Settings | viscosity [mPa·s]
313.15 K, 101 kPa | 3.49

CN(C)C=O
Settings | viscosity
293.15 K, 100 kPa | 0.855 mPa·s
293.15 K, 101.33 kPa | 0.9248 mPa·s and 0.88 mPa·s
298.15 K, 100 kPa | 0.82 mPa·s and 0.843 mPa·s
298.15 K, 101.3 kPa | 0.792 mPa·s
298.15 K, 101.33 kPa | 0.83 mPa·s
302.15 K, 101 kPa | 1.032 mPa·s
303 K, 101.33 kPa | 0.758 mPa·s
303.15 K, 101.3 kPa | 0.7675 mPa·s and 0.7524 mPa·s
303.15 K, 101.33 kPa | 0.78 mPa·s
305.15 K, 101 kPa | 0.979 mPa·s
308 K, 101.33 kPa | 0.721 mPa·s
308.15 K, 100 kPa | 0.729 mPa·s and 0.718 mPa·s
308.15 K, 101.3 kPa | 0.7077 mPa·s
308.15 K, 101.33 kPa | 0.74 mPa·s
313.15 K, 100 kPa | 0.687 mPa·s and 0.688 mPa·s
313.15 K, 101.3 kPa | 0.6644 mPa·s
313.15 K, 101.33 kPa | 0.7143 mPa·s and 0.7 mPa·s
318 K, 101.3 kPa | 0.6348 mPa·s
318 K, 101.33 kPa | 0.6348 mPa·s
318.15 K, 100 kPa | 0.652 mPa·s
318.15 K, 101.33 kPa | 0.67 mPa·s
323.15 K, 101.33 kPa | 0.63 mPa·s

CCCCCCC
Settings | viscosity
293.15 K, 100 kPa | 0.379 mPa·s
293.15 K, 101 kPa | 0.4002 mPa·s and 0.408 mPa·s
293.17 K, 101 kPa | 0.409 mPa·s
293.2 K, 101.3 kPa | 0.4084 mPa·s
296 K, 101.3 kPa | 0.395 mPa·s and 0.397 mPa·s
298 K, 101.33 kPa | 0.3899 mPa·s
298.15 K, 100 kPa | 0.358 mPa·s
303 K, 101.33 kPa | 0.374 mPa·s
303.15 K, 100 kPa | 0.376 mPa·s and 0.337 mPa·s
303.15 K, 101.33 kPa | 0.403 mPa·s and 0.381 mPa·s
308.15 K, 100 kPa | 0.342 mPa·s and 0.318 mPa·s
308.15 K, 101.33 kPa | 0.363 mPa·s
313.15 K, 100 kPa | 0.301 mPa·s and 0.34 mPa·s
313.15 K, 101 kPa | 0.331 mPa·s and 0.332 mPa·s and 0.3432 mPa·s
313.2 K, 101.3 kPa | 0.3447 mPa·s
318.15 K, 101 kPa | 0.326 mPa·s and 0.314 mPa·s and 0.3269 mPa·s
318.15 K, 101.33 kPa | 0.317 mPa·s
323 K, 101.33 kPa | 0.308 mPa·s
323.1 K, 101.3 kPa | 0.3182 mPa·s
323.15 K, 101 kPa | 0.3039 mPa·s

C1CCC2CCCCC2C1 (centres undefined)
viscosity
Settings | 293.15 K | 298.15 K | 303.15 K | 308.15 K | 313.15 K | 318.15 K | 323.15 K
100 kPa | 2.507 mPa·s | 2.272 mPa·s | 2.07 mPa·s | – | 1.741 mPa·s | – | 1.457 mPa·s
101 kPa | 2.453 mPa·s | 2.223 mPa·s and 2.171 mPa·s | 2.026 mPa·s | 1.854 mPa·s | 1.703 mPa·s | 1.571 mPa·s | 1.454 mPa·s

COCC(C)O (centres undefined)
viscosity
Settings | 298.15 K | 303.15 K | 308.15 K | 313.15 K | 318.15 K
101 kPa | 1.55 mPa·s | 1.3 mPa·s | 1.22 mPa·s | 1.11 mPa·s | 1.04 mPa·s
101.33 kPa | 1.671 mPa·s and 1.723 mPa·s and 1.694 mPa·s | – | 1.374 mPa·s and 1.329 mPa·s | – | 1.09 mPa·s and 1.078 mPa·s
